Test results from US20240246920A1, “TRIAZOLE DERIVATIVES WITH ANTIFUNGAL ACTIVITY” (King's College London, priority 2020, published 2024).
≈ marks a conversion by molar mass, not a printed value. Read-outs that look alike come from different tables or passages of the source.

Columns and labels:
Assay in all cases: Candida panel MIC, serial dilution in 96-well plates
C. glabrata NCPF8018 = assay type: cell-based, Candida glabrata; conditions: Nakaseomyces glabratus
Method in brief: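 MIC taken as lowest concentration inhibiting growth ≥50% relative to drug-free control, from OD530 after 24 hours at 37° C. Fungi at 0.5-5×10^5/mL were exposed to serially diluted compound in RPMI 1640/MOPS/2% glucose medium adjusted to pH 7.0.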

C. auris 8984 = assay type: cell-based, Candida auris
Method in brief: (§1)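 MIC is the lowest concentration inhibiting growth by ≥50% relative to the drug-free control, read at OD530 nm after 24 hours at 37° C. Fungi were seeded at 0.5-5×10^5/mL in MOPS-buffered RPMI 1640 with 2% glucose, pH 7.0; compounds came from DMSO solutions diluted in media.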

C. auris 8971 = assay type: cell-based, Candida auris
Method in brief: as §1

C. auris 8977 = assay type: cell-based, Candida auris
Method in brief: as §1

C. auris TDG1912 = assay type: cell-based; conditions: Candidozyma auris, TDG1912; Table 4; 24 hours, ≥50% inhibition; read-out: MIC C. auris TDG1912
Method in brief: (§2)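 Broth microdilution in RPMI 1640/MOPS/2% glucose, pH 7.0, compound serially diluted from 128 to 0.25 μg/mL. Inoculum 0.5-5×10^5/mL from overnight 37 °C cultures; plates incubated 24 h at 37 °C. Growth read at OD530; MIC is lowest concentration giving ≥50% inhibition versus drug-free growth control.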

C. tropicalis NCPF8760 = assay type: cell-based
Method in brief: as §2

Candida auris TDG2512 = assay type: cell-based; conditions: Candidozyma auris, TDG2512; Table 4, extended panel; 24 hours, ≥50% inhibition; read-out: MIC Candida auris TDG2512
Method in brief: as §2

Candida auris TDG1102 = assay type: cell-based; conditions: Candidozyma auris, TDG1102; Table 4, extended panel; 24 hours, ≥50% inhibition; read-out: MIC Candida auris TDG1102
Method in brief: as §2

## OC(Cn1cncn1)(Cn1cncn1)c1ccc(F)cc1F [Fluconazole, fluconazole, reference compound]
C. glabrata NCPF8018; NCPF8018, read-out: MIC C. Glabrata NCPF8018
  MIC: 0.5 to 4 mg/L (≈ 1.63 to 13.1 µM)
C. glabrata NCPF8018; NCPF8018, read-out: MIC Fluconazole, C. glabrata 8018
  MIC: > 128 mg/L
C. glabrata NCPF8018; NCPF8018, Table 4, common panel, 24 hours, ≥50% inhibition, read-out: MIC C. glabrata NCPF8018
  MIC: 0.5 to 4 mg/L (≈ 1.63 to 13.1 µM)
C. auris 8984; Candidozyma auris, 8984, 24 h, read-out: MIC C. auris 8984
  MIC: > 128 mg/L
C. auris 8984; Candidozyma auris, 8984, read-out: MIC C. auris 8984
  MIC: > 128 mg/L
C. auris 8971; Candidozyma auris, 8971, 24 h, read-out: MIC C. auris 8971
  MIC: 16 mg/L (≈ 52.2 µM)
C. auris 8971; Candidozyma auris, 8971, read-out: MIC C. auris 8971
  MIC: 32 mg/L (≈ 104 µM)
C. auris 8977; Candidozyma auris, 8977, 24 h, read-out: MIC C. auris 8977
  MIC: 32 mg/L (≈ 104 µM)
C. auris 8977; Candidozyma auris, 8977, read-out: MIC C. auris 8977
  MIC: 16 mg/L (≈ 52.2 µM)
C. auris TDG1912
  MIC: > 128 mg/L
C. tropicalis NCPF8760; NCPF8760, Table 4, common panel, 24 hours, ≥50% inhibition, read-out: MIC C. tropicalis NCPF8760
  MIC: 4 to 8 mg/L (≈ 13.1 to 26.1 µM)
C. tropicalis NCPF8760; NCPF8760, read-out: MIC C. Tropicalis NCPF8760
  MIC: 4 to 8 mg/L (≈ 13.1 to 26.1 µM)
Candida auris TDG2512
  MIC: 16 mg/L (≈ 52.2 µM)
Candida auris TDG1102
  MIC: 64 mg/L (≈ 209 µM)
